# System: premenopausal women with heavy uterine bleeding due to uterine fibroids
# Assay: Double-blind, randomized, placebo-controlled clinical study; menstrual bleeding assessed by pictorial blood loss assessment chart (PBAC), with or without later uterine artery embolization (UAE)
# Assay type: in vivo, human
# Conditions: for % Patient with PBAC < 75 at baseline / PBAC at baseline: before treatment; for PBAC at baseline / PBAC 3 months after treatment stop / PBAC 6 months after treatment stop / PBAC at week 13 of treatment: Mean +/- SD
# Procedure: A double-blind, randomized, placebo-controlled study was conducted to evaluate the long term effect of ulipristal acetate in the treatment of uterine fibroids. Patients included premenopausal women 18-50 years with heavy uterine bleeding due to uterine fibroids who were eligible for surgery. These patients met the criteria of a Pictorial Bleeding Assessment Chart (PBAC) score >100 during days 1-8 of menstruation.
# The patients were randomized in a 2:2:1 manner to receive for 12 weeks, either ulipristal acetate (UPA) 5 mg or ulipristal acetate 10 mg or placebo. In addition, all patients received concomitant iron therapy (1 tablet of 80 mg or iron once daily, Tardyfero®). The reference to 2:2:1 means that for every 5 patients, two would be randomized to receive UA 5 mg, two to receive UA 10 mg and one to receive placebo.
# Forty-eight patients received a daily placebo treatment, 95 patients received a daily dose of 5 mg ulipristal acetate (Esmya®), and 98 patients received a daily dose of 10 mg ulipristal acetate (Esmya®). […] Thirty-three subjects underwent a Uterine Artery Embolization at or after week 13: 4 patients in the placebo group (group 4), 11 patients in the 5 mg ulipristal (Esmya®) group (group 5) and 18 patients in the 10 mg ulipristal (Esmya®)) group (group 6).
# For study enrollment as well as follow-up assessment, menstrual bleeding was assessed using the pictorial blood loss assessment chart (PBAC) developed by Higham and colleagues (Higham J M, O'Brien P M, Shaw R W. Assessment of menstrual blood loss using a pictorial chart. Br J Obstet Gynaecol 1990; 97:734-9). The PBAC is one of the current standard methods used to objectively estimate menstrual blood loss and diagnose menorrhagia. Abnormal bleeding is defined as PBAC score >100 over 8 days of menstruation. Normal menstrual bleeding PBAC is <75. Amenorrhea is PBAC=0.
# The PBAC score was assessed before treatment (Baseline), at week 13 after the end of treatment with ulipristal, at 3 months and 6 months after […].
# The PBAC and the % of patients with a PBAC <75 was reported before treatment (Baseline), at week 13 after the end of treatment with ulipristal, at 3 months and 6 months after the treatment stop.
# [1] = 5 mg daily, no UAE or any other surgery (Group 2)
# [2] = 5 mg daily, no UAE or any other surgery (Group 2), listed as ulipristal
# [3] = 5 mg daily, with UAE (Group 5), listed as ulipristal
# [4] = 10 mg daily, no UAE or any other surgery (Group 3)
# [5] = 10 mg daily, no UAE or any other surgery (Group 3), listed as ulipristal
# [6] = 10 mg daily, with UAE (Group 6)
# [7] = 10 mg daily, with UAE (Group 6), listed as ulipristal
# [8] = 5 mg daily, with UAE performed after treatment stop (Group 5)
# [9] = 10 mg daily, with UAE performed after treatment stop (Group 6)
compound,measurement,setting,value
"CC(=O)O[C@]1(C(C)=O)CC[C@H]2[C@@H]3CCC4=CC(=O)CCC4=C3[C@@H](c3ccc(N(C)C)cc3)C[C@@]21C [Esmya, 17α-acetoxy-11β-[4-N,N-dimethylaminophenyl)-19-norpregna-4,9-diene-3,20-dione]","% Patient with PBAC < 75, 3 months after end of treatment",[1],15%
same,"% Patient with PBAC < 75, 6 months after end of treatment",[1],17%
same,% Patient with PBAC < 75 at week 13 of treatment,[1],98%
same,% Patient with PBAC < 75 at baseline,[1],0%
same,"% Patient with PBAC < 75, 3 months after end of treatment",[2],15%
same,% Patient with PBAC < 75 at week 13 of treatment,[2],98%
same,"% Patient with PBAC < 75, 3 months after end of treatment","5 mg daily, with UAE (Group 5)",36%
same,"% Patient with PBAC < 75, 6 months after end of treatment","5 mg daily, with UAE (Group 5)",27%
same,% Patient with PBAC < 75 at week 13 of treatment,"5 mg daily, with UAE (Group 5)",100%
same,% Patient with PBAC < 75 at baseline,"5 mg daily, with UAE (Group 5)",0%
same,"% Patient with PBAC < 75, 3 months after end of treatment",[3],36%
same,"% Patient with PBAC < 75, 6 months after end of treatment",[3],27%
same,% Patient with PBAC < 75 at week 13 of treatment,[3],100%
same,"% Patient with PBAC < 75, 3 months after end of treatment",[4],17%
same,"% Patient with PBAC < 75, 6 months after end of treatment",[4],26%
same,% Patient with PBAC < 75 at week 13 of treatment,[4],97%
same,% Patient with PBAC < 75 at baseline,[4],0%
same,"% Patient with PBAC < 75, 3 months after end of treatment",[5],17%
same,% Patient with PBAC < 75 at week 13 of treatment,[5],97%
same,"% Patient with PBAC < 75, 3 months after end of treatment",[6],60%
same,"% Patient with PBAC < 75, 6 months after end of treatment",[6],53%
same,% Patient with PBAC < 75 at week 13 of treatment,[6],100%
same,% Patient with PBAC < 75 at baseline,[6],0%
same,"% Patient with PBAC < 75, 3 months after end of treatment",[7],60%
same,"% Patient with PBAC < 75, 6 months after end of treatment",[7],53%
same,% Patient with PBAC < 75 at week 13 of treatment,[7],100%
same,PBAC at baseline,"5 mg daily oral 12 weeks, no UAE or any other surgery (Group 2)",419 +/− 281
same,PBAC at baseline,"5 mg daily oral 12 weeks, with UAE performed after treatment stop (Group 5)",490 +/− 231
same,PBAC 3 months after treatment stop,[1],337 +/− 300
same,PBAC 6 months after treatment stop,[1],338 +/− 233
same,PBAC at week 13 of treatment,[1],13 +/− 69
same,PBAC 3 months after treatment stop,[8],202 +/− 102
same,PBAC 6 months after treatment stop,[8],207 +/− 117
same,PBAC at week 13 of treatment,[8],25 +/− 60
same,PBAC at baseline,"10 mg daily oral 12 weeks, no UAE or any other surgery (Group 3)",340 +/− 187
same,PBAC at baseline,"10 mg daily oral 12 weeks, with UAE performed after treatment stop (Group 6)",375 +/− 135
same,PBAC 3 months after treatment stop,[4],417 +/− 669
same,PBAC 6 months after treatment stop,[4],203 +/− 161
same,PBAC at week 13 of treatment,[4],2 +/− 13
same,PBAC 3 months after treatment stop,[9],120 +/− 55
same,PBAC 6 months after treatment stop,[9],136 +/− 70
same,PBAC at week 13 of treatment,[9],0 +/− 0
same,effect for controlling menstrual bleeding resulting from oral administration prior to UAE,oral ulipristal prior to UAE versus ulipristal alone and UAE alone,synergistic effect

# Source: patent US20140148419A1, “Treatment of Excessive Menstrual Bleeding Associated with Uterine Fibroids” (PREGLEM SA, priority 2011, published 2014)
